Active and inactive are the calls of the source. No cut-off for these calls is given here.
Legend:
[1] = test system: HEK293; test: Inhibition of Wnt signalling in HEK293 cells harbouring TCF/beta-catenin luciferase reporter gene assessed as TCF/beta-catenin transcriptional activity at 30 to 60 uM by TOPFlash luciferase assay; type: cell-based; settings: Homo sapiens, dose 30-60 µM
[2] = test system: HT-29; test: Cytotoxicity against human HT-29 cells assessed as cell viability at 1.563 to 50 uM measured after 72 hrs by plate reader method; type: functional, cell-based; settings: for IC50: HT-29, 72 h

SMILES	Activity [1]	IC50 [2] [µM]	Activity ([2]; dose 1.563-50 µM)
Cc1cc2c(c(=O)o1)[C@H]1C[C@](C)(CC[C@H]1C(C)C)O2	Active		
CC(C)[C@@H]1CC[C@@]2(C)C[C@@H]1c1c(cc(/C=C/c3ccccc3)oc1=O)O2	Active	32.4	
Cc1cc(O)cc(=O)o1	inactive		
Cc1cc2c(c(=O)o1)[C@H]1C[C@](C)(CC[C@@H]1C(C)C)O2	Active		
CC(C)[C@H]1CC[C@@]2(C)C[C@@H]1c1c(cc(/C=C/c3ccccc3)oc1=O)O2	Active	8.2	
CC1=CC(=O)C(C(C)C)CC1 (racemic)	inactive		
CC(C)[C@H]1CC[C@@]2(C)C[C@@H]1c1c(cc(/C=C/c3cccs3)oc1=O)O2	Active		Active
COc1cc(/C=C/c2ccccc2)oc(=O)c1	inactive		
COc1cc(O)c(C(=O)/C=C/c2ccccc2)c2c1[C@@H]1[C@@H](C(C)C)CC[C@](C)(O)[C@@H]1O2	inactive		
CC(C)[C@H]1CC[C@]2(C)C[C@H]1c1c(cc(/C=C/c3ccccc3)oc1=O)O2	Active		
O=C1[C@H](Cc2ccc(O)cc2)N2C(=O)CCN(C(=O)NCc3ccccc3)[C@H]2CN1Cc1cccc2ccccc12		10.8	

Source: ChEMBL document CHEMBL4811288, “Linderapyrone: A Wnt signal inhibitor isolated from Lindera umbellata” (Bioorg Med Chem Lett, 2021)
